# Data taken from PubChem BioAssay (NCI).
#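 Results reflect a 48-hour exposure of cells in 96-well plates to compound at five concentrations. TGI is the concentration that stops growth completely.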
# Assays:
# Test in all cases: inhibition of tumour cell growth, NCI panel, 48 h
# SR leukemia = tested on: SR leukemia
# MALME-3M melanoma = tested on: MALME-3M melanoma
# UACC-62 melanoma = tested on: UACC-62 melanoma
# CCRF-CEM leukemia = tested on: CCRF-CEM leukemia
# SK-MEL-2 melanoma = tested on: SK-MEL-2 melanoma
# ACHN renal = tested on: ACHN renal
# MOLT-4 leukemia = tested on: MOLT-4 leukemia
# DMS 273 small cell lung = tested on: DMS 273 small cell lung
# TK-10 renal = tested on: TK-10 renal
# DMS 114 small cell lung = tested on: DMS 114 small cell lung
# SK-MEL-5 melanoma = tested on: SK-MEL-5 melanoma
# M14 melanoma = tested on: M14 melanoma
# NCI-H226 lung = tested on: NCI-H226 lung
# NCI-H522 lung = tested on: NCI-H522 lung
# DLD-1 colon = tested on: DLD-1 colon
# CAKI-1 renal = tested on: CAKI-1 renal
# SW-620 colon = tested on: SW-620 colon
# OVCAR-4 ovarian = tested on: OVCAR-4 ovarian
# IGROV1 ovarian = tested on: IGROV1 ovarian
# HL-60(TB) leukemia = tested on: HL-60(TB) leukemia
# SNB-75 CNS = tested on: SNB-75 CNS
# LXFL 529 NSCLC = tested on: LXFL 529 NSCLC
# SK-MEL-28 melanoma = tested on: SK-MEL-28 melanoma
# SN12C renal = tested on: SN12C renal
# HT29 colon = tested on: HT29 colon
# A549 NSCLC = tested on: A549 NSCLC
# M19-MEL melanoma = tested on: M19-MEL melanoma
# HOP-62 NSCLC = tested on: HOP-62 NSCLC
# RXF 393 renal = tested on: RXF 393 renal
# RPMI-8226 leukemia = tested on: RPMI-8226 leukemia
# HCT-15 colon = tested on: HCT-15 colon
# HOP-18 NSCLC = tested on: HOP-18 NSCLC
# SF-295 CNS = tested on: SF-295 CNS
# SF-539 CNS = tested on: SF-539 CNS
# SNB-19 CNS = tested on: SNB-19 CNS
# KM20L2 colon = tested on: KM20L2 colon
# HCT-116 colon = tested on: HCT-116 colon
# KM12 colon = tested on: KM12 colon
# UACC-257 melanoma = tested on: UACC-257 melanoma
# UO-31 renal = tested on: UO-31 renal
# OVCAR-3 ovarian = tested on: OVCAR-3 ovarian
# OVCAR-5 ovarian = tested on: OVCAR-5 ovarian
# SF-268 CNS = tested on: SF-268 CNS
# K-562 leukemia = tested on: K-562 leukemia
# NCI-H460 lung = tested on: NCI-H460 lung
# HOP-92 NSCLC = tested on: HOP-92 NSCLC
# OVCAR-8 ovarian = tested on: OVCAR-8 ovarian
# 786-0 renal = tested on: 786-0 renal
# U251 CNS = tested on: U251 CNS
# COLO 205 colon = tested on: COLO 205 colon
# SNB-78 CNS = tested on: SNB-78 CNS
# NCI-H23 lung = tested on: NCI-H23 lung
# SK-OV-3 ovarian = tested on: SK-OV-3 ovarian
# LOX IMVI melanoma = tested on: LOX IMVI melanoma
# DU-145 prostate = tested on: DU-145 prostate
# A498 renal = tested on: A498 renal
# T-47D breast = tested on: T-47D breast
# NCI/ADR-RES ovarian = tested on: NCI/ADR-RES ovarian
# MDA-N = tested on: MDA-N
# HCC-2998 colon = tested on: HCC-2998 colon
# MDA-MB-231 breast = tested on: MDA-MB-231 breast
# MDA-MB-435 = tested on: MDA-MB-435
# MCF7 breast = tested on: MCF7 breast
# PC-3 prostate = tested on: PC-3 prostate
# BT-549 breast = tested on: BT-549 breast
# HS 578T breast = tested on: HS 578T breast
# EKVX NSCLC = tested on: EKVX NSCLC
smiles,measurement,setting,value
O=[N+]([O-])c1cc(Cl)ccc1S(=O)(=O)c1ccc(Cl)cc1[N+](=O)[O-],TGI,SR leukemia,40.3 µM
same,TGI,MALME-3M melanoma,26.6 µM
same,TGI,UACC-62 melanoma,31 µM
same,TGI,CCRF-CEM leukemia,> 100 µM
same,TGI,SK-MEL-2 melanoma,33 µM
same,TGI,ACHN renal,29.7 µM
same,TGI,MOLT-4 leukemia,84.4 µM
same,TGI,DMS 273 small cell lung,27.2 µM
same,TGI,TK-10 renal,31.5 µM
same,TGI,DMS 114 small cell lung,23.9 µM
same,TGI,SK-MEL-5 melanoma,27.7 µM
same,TGI,M14 melanoma,30.4 µM
same,TGI,NCI-H226 lung,25.1 µM
same,TGI,NCI-H522 lung,29.9 µM
same,TGI,DLD-1 colon,29.4 µM
same,TGI,CAKI-1 renal,33.9 µM
same,TGI,SW-620 colon,32.6 µM
same,TGI,OVCAR-4 ovarian,37.2 µM
same,TGI,IGROV1 ovarian,29.4 µM
same,TGI,HL-60(TB) leukemia,58 µM
same,TGI,SNB-75 CNS,29.7 µM
same,TGI,LXFL 529 NSCLC,27.2 µM
same,TGI,SK-MEL-28 melanoma,32 µM
same,TGI,SN12C renal,29.1 µM
same,TGI,HT29 colon,30.9 µM
same,TGI,A549 NSCLC,70 µM
same,TGI,M19-MEL melanoma,28.7 µM
same,TGI,HOP-62 NSCLC,35.9 µM
same,TGI,RXF 393 renal,29.5 µM
same,TGI,RPMI-8226 leukemia,> 100 µM
same,TGI,HCT-15 colon,33 µM
same,TGI,HOP-18 NSCLC,30.4 µM
same,TGI,SF-295 CNS,29 µM
same,TGI,SF-539 CNS,32.7 µM
same,TGI,SNB-19 CNS,31.4 µM
same,TGI,KM20L2 colon,31.3 µM
same,TGI,HCT-116 colon,29.2 µM
same,TGI,KM12 colon,27.7 µM
same,TGI,UACC-257 melanoma,26.7 µM
same,TGI,UO-31 renal,30.9 µM
same,TGI,OVCAR-3 ovarian,31.1 µM
same,TGI,OVCAR-5 ovarian,34 µM
same,TGI,SF-268 CNS,29.2 µM
same,TGI,K-562 leukemia,> 100 µM
same,TGI,NCI-H460 lung,31.5 µM
same,TGI,HOP-92 NSCLC,32.6 µM
same,TGI,OVCAR-8 ovarian,29.5 µM
same,TGI,786-0 renal,28.9 µM
same,TGI,U251 CNS,34.5 µM
same,TGI,COLO 205 colon,30.7 µM
same,TGI,SNB-78 CNS,34.7 µM
same,TGI,NCI-H23 lung,29.2 µM
same,TGI,SK-OV-3 ovarian,29.4 µM
same,TGI,LOX IMVI melanoma,32.5 µM
O=C(c1ccc(Cl)c(Cl)c1)N(C(=O)N1CCN(c2ccccc2)CC1)S(=O)(=O)c1ccccc1,TGI,DU-145 prostate,> 100 µM
same,TGI,SR leukemia,> 100 µM
same,TGI,MALME-3M melanoma,> 100 µM
same,TGI,UACC-62 melanoma,> 100 µM
same,TGI,CCRF-CEM leukemia,> 100 µM
same,TGI,SK-MEL-2 melanoma,48.2 µM
same,TGI,A498 renal,> 100 µM
same,TGI,ACHN renal,> 100 µM
same,TGI,T-47D breast,> 100 µM
same,TGI,MOLT-4 leukemia,41.8 µM
same,TGI,NCI/ADR-RES ovarian,> 100 µM
same,TGI,TK-10 renal,> 100 µM
same,TGI,SK-MEL-5 melanoma,84.7 µM
same,TGI,M14 melanoma,> 100 µM
same,TGI,MDA-N,62.8 µM
same,TGI,NCI-H226 lung,87.9 µM
same,TGI,NCI-H522 lung,39.7 µM
same,TGI,HCC-2998 colon,> 100 µM
same,TGI,CAKI-1 renal,> 100 µM
same,TGI,SW-620 colon,> 100 µM
same,TGI,OVCAR-4 ovarian,65.6 µM
same,TGI,HL-60(TB) leukemia,> 100 µM
same,TGI,MDA-MB-231 breast,> 100 µM
same,TGI,SNB-75 CNS,> 100 µM
same,TGI,SK-MEL-28 melanoma,> 100 µM
same,TGI,SN12C renal,> 100 µM
same,TGI,HT29 colon,> 100 µM
same,TGI,A549 NSCLC,> 100 µM
same,TGI,HOP-62 NSCLC,> 100 µM
same,TGI,RXF 393 renal,> 100 µM
same,TGI,RPMI-8226 leukemia,> 100 µM
same,TGI,HCT-15 colon,59.1 µM
same,TGI,SF-295 CNS,> 100 µM
same,TGI,SF-539 CNS,> 100 µM
same,TGI,SNB-19 CNS,> 100 µM
same,TGI,MDA-MB-435,> 100 µM
same,TGI,HCT-116 colon,86.8 µM
same,TGI,KM12 colon,> 100 µM
same,TGI,UACC-257 melanoma,> 100 µM
same,TGI,UO-31 renal,50.3 µM
same,TGI,OVCAR-3 ovarian,> 100 µM
same,TGI,OVCAR-5 ovarian,64.5 µM
same,TGI,SF-268 CNS,> 100 µM
same,TGI,MCF7 breast,> 100 µM
same,TGI,K-562 leukemia,> 100 µM
same,TGI,NCI-H460 lung,> 100 µM
same,TGI,HOP-92 NSCLC,84.4 µM
same,TGI,OVCAR-8 ovarian,83.5 µM
same,TGI,PC-3 prostate,93.5 µM
same,TGI,BT-549 breast,> 100 µM
same,TGI,786-0 renal,> 100 µM
same,TGI,U251 CNS,62.9 µM
same,TGI,COLO 205 colon,> 100 µM
same,TGI,NCI-H23 lung,96.2 µM
same,TGI,HS 578T breast,> 100 µM
same,TGI,SK-OV-3 ovarian,79.6 µM
same,TGI,EKVX NSCLC,> 100 µM
same,TGI,LOX IMVI melanoma,40.5 µM
CC1(C)Cc2nnsc2C2=C1C(=O)CCS2,TGI,MALME-3M melanoma,> 100 µM
same,TGI,UACC-62 melanoma,> 100 µM
same,TGI,CCRF-CEM leukemia,> 100 µM
same,TGI,SK-MEL-2 melanoma,> 100 µM
same,TGI,ACHN renal,> 100 µM
same,TGI,MOLT-4 leukemia,> 100 µM
same,TGI,DMS 273 small cell lung,> 100 µM
same,TGI,TK-10 renal,> 100 µM
same,TGI,DMS 114 small cell lung,> 100 µM
same,TGI,SK-MEL-5 melanoma,> 100 µM
same,TGI,M14 melanoma,> 100 µM
same,TGI,NCI-H522 lung,> 100 µM
same,TGI,DLD-1 colon,> 100 µM
same,TGI,HCC-2998 colon,> 100 µM
same,TGI,CAKI-1 renal,> 100 µM
same,TGI,SW-620 colon,> 100 µM
same,TGI,OVCAR-4 ovarian,> 100 µM
same,TGI,IGROV1 ovarian,> 100 µM
same,TGI,HL-60(TB) leukemia,> 100 µM
same,TGI,SNB-75 CNS,> 100 µM
same,TGI,LXFL 529 NSCLC,> 100 µM
same,TGI,SK-MEL-28 melanoma,> 100 µM
same,TGI,SN12C renal,> 100 µM
same,TGI,HT29 colon,> 100 µM
same,TGI,A549 NSCLC,> 100 µM
same,TGI,HOP-62 NSCLC,> 100 µM
same,TGI,RXF 393 renal,> 100 µM
same,TGI,RPMI-8226 leukemia,> 100 µM
same,TGI,HCT-15 colon,> 100 µM
same,TGI,HOP-18 NSCLC,> 100 µM
same,TGI,SF-295 CNS,> 100 µM
same,TGI,SF-539 CNS,> 100 µM
same,TGI,SNB-19 CNS,> 100 µM
same,TGI,KM20L2 colon,> 100 µM
same,TGI,KM12 colon,> 100 µM
same,TGI,UACC-257 melanoma,> 100 µM
same,TGI,UO-31 renal,> 100 µM
same,TGI,OVCAR-3 ovarian,> 100 µM
same,TGI,OVCAR-5 ovarian,> 100 µM
same,TGI,SF-268 CNS,> 100 µM
same,TGI,K-562 leukemia,> 100 µM
same,TGI,NCI-H460 lung,> 100 µM
same,TGI,HOP-92 NSCLC,> 100 µM
same,TGI,OVCAR-8 ovarian,> 100 µM
same,TGI,786-0 renal,> 100 µM
same,TGI,U251 CNS,> 100 µM
same,TGI,COLO 205 colon,> 100 µM
same,TGI,NCI-H23 lung,> 100 µM
same,TGI,SK-OV-3 ovarian,> 100 µM
same,TGI,EKVX NSCLC,> 100 µM
same,TGI,LOX IMVI melanoma,> 100 µM
